# Key:
# Assay in all cases: MIC and synergy testing in tryptic soy broth (turbidity reading)
# Format in all cases: cell-based
# [1] = system: Pseudomonas aeruginosa (DSMZ#939); details: 48 hours, 30° C., TSB
# Method: (§1) The synergism of the biocides combination of the present invention was determined using the method described by Kull, F. C., et. al in Applied Microbiology 9:538-541 (1961). The formula to calculate the synergy index (SI) is Qa/QA+Qb/QB=SI Where • QA=concentration of compound A in ppm, acting alone produced an end point (growth/no growth) • Qa=concentration of compound A in ppm, in the mixture, which produced an end point (growth/no growth) • QB=concentration of compound B in ppm, acting alone produced an end point (growth/no growth) • Qb=concentration of compound B in ppm, in the mixture, which produced an end point (growth/no growth) […]
# (§2) • 1. The test was executed with a Hamilton MLStarPlus robot using automated turbidity reading with BioTek Synergy H4 plate reader. • 2. […]
# (§3) • The cultures were maintained as glycerol stocks at −80° C. in cryovials, are thawed and then 100 μl spread on MEA (malt extract agar) petri dishes. • The yeast strain plates were incubated at 28° C. for 1-2 days then harvested with buffer pH 5.0. • Based on total viable count results, the inoculum was prepared. • 7. […] Reading of the results was carried out by measuring absorbance at 600 nm for each sample at the beginning of the test (tzero) and after incubation (tendpoint). tendpoint was chosen at 48 hours for bacteria and 72 hours for yeast. […]
# [2] = system: Staphylococcus aureus (DSMZ#799); details: 48 hours, 30° C., TSB
# Method: as §1, §2, §3
# [3] = system: Candida albicans (DSMZ#1386); details: 72 hours, 30° C., TSB
# Method: as §1, §2, §3
smiles,measurement,setting,value
"CCCCNC(=O)OCC#CI [IPBC, 3-Iodo-2-propynyl-butylcarbamate]","MIC, single biocide",[1],1400.0 ppm
same,"MIC, single biocide",[2],21.6 ppm
same,"MIC, single biocide",[3],6.6 ppm
